Measurements taken from article PMC3198391, “Mechanism of Disruption of the Amt-GlnK Complex by PII-Mediated Sensing of 2-Oxoglutarate” (PLoS ONE, 2011).

Assays:
Af-GlnK3 [1] = target: T1, Af-GlnK3 (Archaeoglobus fulgidus, UniProt O28524, F97I); experiment: isothermal titration calorimetry, one-site model; type: binding; settings: read-out: Dissociation constantKD
T1 construct: full length, pET21a, C-terminal pentahistidine tag kept, three Ala (113-115) inserted in linker before tag; E. coli BL21(DE3) Rosetta; 13 kDa monomer, homotrimer; forward primer encodes MKMVVAVI, reverse end TGDEEV; sites between monomers
From the text: (§1) isothermal titration calorimetry, one-site model on Af-GlnK3

Af-GlnK3 [2] = target: T2, Af-GlnK3 (Archaeoglobus fulgidus, UniProt O28524, F97P); experiment: isothermal titration calorimetry, one-site model; type: binding; settings: read-out: Dissociation constantKD
T2 construct: full length, pET21a, C-terminal pentahistidine tag kept, three Ala (113-115) inserted in linker before tag; E. coli BL21(DE3) Rosetta; 13 kDa monomer, homotrimer; forward primer encodes MKMVVAVI, reverse end TGDEEV; sites between monomers
From the text: as §1

Af-GlnK3 [3] = target: T3, Af-GlnK3 (Archaeoglobus fulgidus, UniProt O28524); experiment: isothermal titration calorimetry, one-site model; type: binding; settings: read-out: Dissociation constantKD
T3 construct: full length, pET21a, C-terminal pentahistidine tag kept, three Ala (113-115) inserted in linker before tag; E. coli BL21(DE3) Rosetta; 13 kDa monomer, homotrimer; forward primer encodes MKMVVAVI, reverse end TGDEEV; sites between monomers
From the text: as §1

[4] = target: Af-GlnK3 (Archaeoglobus fulgidus) (UniProt O28524); experiment: crystal structure; vapour diffusion, sitting drop, trimer fraction from size exclusion chromatography; crystals as isolated, soaked with MgATP or MgADP, or co-crystallised with MgATP and 2-OG
[5] = target: Af-GlnK3 (Archaeoglobus fulgidus) (UniProt O28524); experiment: SEC; gel filtration during purification; 50 mM Tris-HCl pH 8.0, 300 mM NaCl

T3 sequence (O28524 12-120): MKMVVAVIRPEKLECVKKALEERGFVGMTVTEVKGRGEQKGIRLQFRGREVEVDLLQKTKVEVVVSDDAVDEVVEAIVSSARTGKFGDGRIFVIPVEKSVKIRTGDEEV
Af-GlnK3 (from UniProt O28524 1-120) (natural protein), sequence (O28524 whole entry): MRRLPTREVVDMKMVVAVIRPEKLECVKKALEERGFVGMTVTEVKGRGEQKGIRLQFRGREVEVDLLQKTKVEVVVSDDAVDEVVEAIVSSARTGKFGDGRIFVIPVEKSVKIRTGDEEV
T1 sequence (O28524 12-120 F97I): as the sequence (O28524 12-120) above, with F86I counted along it
T2 sequence (O28524 12-120 F97P): as the sequence (O28524 12-120) above, with F86P counted along it

Kd (Af-GlnK3 [1]) | Kd (Af-GlnK3 [2]) | Kd (Af-GlnK3 [3]) | stoichiometry N [4] | stoichiometry N [5] | Molecule
149 µM | 128 µM | 338 µM | – | – | Nc1ncnc2c1ncn2[C@@H]1O[C@H](COP(=O)(O)OP(=O)(O)OP(=O)(O)O)[C@@H](O)[C@H]1O [ATP]
– | – | – | 3 | 3 | Af-GlnK3 (from UniProt O28524 1-120) (natural protein)
373 µM | 102 µM | 568 µM | – | – | Nc1ncnc2c1ncn2[C@@H]1O[C@H](COP(=O)(O)OP(=O)(O)O)[C@@H](O)[C@H]1O [ADP]
